Patent US20030119742A1, “Methods and compositions to treat cardiovascular disease using 139, 258, 1261, 1486, 2398, 2414, 7660, 8587,10183, 10550, 12680, 17921, 32248, 60489 or 93804” (Millennium Pharmaceuticals, Inc., priority 2001, published 2003)

What was measured:
[1] = system: 1486 mRNA; experiment: TaqMan analysis of 1486 mRNA in livers of treated marmosets; type: in vivo, marmoset
Source text: (§1) This example describes the TaqMan™ procedure. The Taqman™ procedure is a quantitative, reverse transcription PCR-based approach for detecting mRNA. The RT-PCR reaction exploits the 5′ nuclease activity of AmpliTaq Gold™ DNA Polymerase to cleave a TaqMan™ probe during PCR. Briefly, cDNA was generated from the samples of interest, e.g., heart, kidney, liver, skeletal muscle, and various vessels, and used as the starting material for PCR amplification. In addition to the 5′ and 3′ gene-specific primers, a gene-specific oligonucleotide probe (complementary to the region being amplified) was included in the reaction (i.e., the Taqman™ probe). […]
(§2) During the PCR reaction, cleavage of the probe separates the reporter dye and the quencher dye, resulting in increased fluorescence of the reporter. Accumulation of PCR products is detected directly by monitoring the increase in fluorescence of the reporter dye. When the probe is intact, the proximity of the reporter dye to the quencher dye results in suppression of the reporter fluorescence. […]

[2] = system: 12680 mRNA; experiment: TaqMan analysis of 12680 mRNA in in vivo marmoset models
Source text: as §1, §2

[3] = system: 10183 mRNA; experiment: TaqMan analysis of 10183 mRNA in in vivo marmoset models
Source text: As assessed by TaqMan analysis, 10183 mRNA is repressed by probucol and cerivastatin/fenofibrate in in vivo marmoset models. Probucol is used clinically for the treatment of atherosclerosis/coronary artery disease. Genes that are regulated by probucol in animal models and/or in vitro models are predicted to be responsible for the therapeutic benefit of this agent and represent new therapeutic targets for the treatment of cardiovascular disease/atherosclerosis/dyslipidemia/lipid disorders. Fibrates are used clinically for the reduction of triglycerides and statins for the reduction of cholesterol, both well-defined risk factor for atherosclerosis/coronary artery disease. Genes that are regulated by this combination treatment in animal models and/or in vitro models are predicted to be responsible for the therapeutic benefit of these agents and represent new therapeutic targets for the treatment of cardiovascular disease/atherosclerosis/dyslipidemia/lipid disorders. […] PPAR alpha agonists are used clinically for the reduction of triglycerides and statins for the reduction of cholesterol, both well-defined risk factor for atherosclerosis/coronary artery disease. […]

[4] = system: 10550 mRNA; experiment: TaqMan analysis of 10550 mRNA in in vivo marmoset models
Source text: as §1, §2

[5] = system: 1261 mRNA; experiment: TaqMan analysis of 1261 mRNA in human microvascular endothelial cells (HMVEC) from the heart; type: cell-based; conditions: HMVEC from the heart treated with the factor
[6] = system: 2414 mRNA; experiment: TaqMan analysis of 2414 mRNA during cytokine stimulation of endothelial cells and monocyte/macrophages; type: cell-based; conditions: cytokine stimulation of either endothelial cells or monocyte/macrophages
Source text: CD40L, TNFalpha, IL-1, and IFNgamma were used to stimulate either endothelial cells or monocyte/macrophages. These cytokines initiate/sustain the atherosclerotic pathogenesis
This example describes the TaqMan™ procedure.

[7] = system: 2398; conditions: endothelial cells
Source text: as §1, §2

[8] = system: 32248 mRNA; experiment: TaqMan analysis of 32248 mRNA in monkey liver model; type: in vivo
Source text: As assessed by TaqMan analysis, 32248 mRNA was repressed by n-3 polyunsaturated fatty acid in monkey liver model. […] Genes that are regulated by polyunsaturated fatty acids in animal models and/or in vitro models are predicted to be responsible for the therapeutic benefit of this agent and represent new therapeutic targets for the treatment of cardiovascular disease/atherosclerosis/dyslipidemia/lipid disorders. […] Cholestyramine is used clinically for the reduction of cholesterol, a defined risk factor for atherosclerosis/coronary artery disease. Genes that are regulated by cholestyramine in animal models and/or in vitro models are predicted to be responsible for the therapeutic benefit of this agent and represent new therapeutic targets for the treatment of cardiovascular disease/atherosclerosis/dyslipidemia/lipid disorders. Fibrates are used clinically for the reduction of triglycerides and statins for the reduction of cholesterol, both well-defined risk factor for atherosclerosis/coronary artery disease. Genes that are regulated by this combination treatment in animal models and/or in vitro models are predicted to be responsible for the therapeutic benefit of these agents and represent new therapeutic targets for the treatment of cardiovascular disease/atherosclerosis/dyslipidemia/lipid disorders. 32248 was highly expressed in human liver. […]

Molecule | expression of human 1261 mRNA [5] | expression of 2414 mRNA [6] | also measured
CC(C)(Sc1cc(C(C)(C)C)c(O)c(C(C)(C)C)c1)Sc1cc(C(C)(C)C)c(O)c(C(C)(C)C)c1 [probucol] | – | – | 1486 mRNA [1]: repressed; 12680 mRNA [2]: repressed; 10183 mRNA [3]: repressed; 10550 mRNA [4]: repressed
IL-1beta: pro-angiogenic factor interleukin 1 beta | upregulated | – | –
TNF-alpha | upregulated | up-regulated | –
VEGF | upregulated | – | 2398 expression [7]: upregulated
n-3 polyunsaturated fatty acid | – | – | 32248 mRNA [8]: repressed
IFNgamma: cytokine used to stimulate endothelial cells or monocyte/macrophages (protein, UniProt P01579 24-161, looked up) Interferon gamma: QDPYVKEAENLKKYFNAGHSDVADNGTLFLGILKNWKEESDRKIMQSQIVSFYFKLFKNFKDDQSIQKSVETIKEDMNVKFFNSNKKKRDDFEKLTNYSVTDLNVQRKAIHELIQVMAELSPAAKTGKRKRSQMLFRG | – | up-regulated | –
CD40L: cytokine used to stimulate endothelial cells or monocyte/macrophages (protein, UniProt P29965 113-261, looked up) CD40 ligand, soluble form: MQKGDQNPQIAAHVISEASSKTTSVLQWAEKGYYTMSNNLVTLENGKQLTVKRQGLYYIYAQVTFCSNREASSQAPFIASLCLKSPGRFERILLRAANTHSSAKPCGQQSIHLGGVFELQPGASVFVNVTDPSQVSHGTGFTSFGLLKL | – | up-regulated | –
